One data set concerns L-82 xenograft. Nature of the data set: L-82 xenograft with CD30 ADCs. It is filed as in vivo, NOD/SCID mice. The conditions noted are these: single i.v. dose 3 mg/kg (equal dosing). Here is the method:
Female NOD/SCID mice were used (8 mice/group) for the study. Animals were inoculated subcutaneously in the flank with 10 million cells in 50% PBS/50% Matrigel. When tumors reached an average volume of 100 mm^3, all animals were treated (Day 0) with a single 10 mg/kg intravenous dose of human IgG. Then, on Day 1, animals were treated with vehicle alone, with unconjugated antibody (3 mg/kg), or with an ADC at 1.5 or 3 mg/kg. The animals were monitored twice weekly for body weight and tumor size. Animals were euthanized when tumors reached 2000 mm^3. ADCs were highly efficacious in this study.

A further data set concerns Karpas 299 xenograft. Nature of the data set: Karpas 299 xenograft study with anti-CD30 ADCs. The conditions noted are these: single i.v. dose 3 mg/kg (equal dosing).
Another data set has as its system Granta 519 xenograft. Nature of the data set: First Granta xenograft study. It is filed as in vivo. The conditions noted are these: polatuzumab ADCs, single dose on Day 7, equal payload dosing levels. From the text:
First Granta Xenograft Study Results: Polatuzumab ADCs carrying MMAE conjugated through five different linker types, including vedotin and CT aldehyde-tagged HIPS conjugates were compared for efficacy at equal payload dosing levels in a Granta 519 xenograft study.

A further data set relates to Male Sprague-Dawley rats. Description: Multi-dose non-GLP rat toxicology study #1. It counts as in vivo. The settings on record: polatuzumab ADCs, DAR ~4, i.v. weekly for 4 doses (days 1, 8, 15, 22), equal payload/equal antibody dosing.

For the substance “Adcetris: anti-CD30 ADC used as comparator”, the complete responses with L-82 xenograft is recorded as 8 complete responses out of 8 mice/group; with Karpas 299 xenograft, 6/6.

Take polatuzumab vedotin: in the data set on Granta 519 xenograft, the “efficacy (tumor growth inhibition)” value is reported as “longest tumor growth inhibition”. Also, in the data set on Male Sprague-Dawley rats, the “tolerability (white and red blood cell parameters)” value was “marked myelosuppression”.

(Values after US20250121090A1, “Antibody-Drug Conjugates and Methods of Use Thereof” (priority 2021, published 2025).)
